Measurements taken from patent US8765748B2, “Indazolyl, benzimidazolyl, benzotriazolyl substituted indolinone derivatives as kinase inhibitors useful in the treatment of cancer” (University Health Network, priority 2007, dated 2014).
Read-outs that look alike come from different tables or passages of the source.

Experiments:
Assay type in all cases: biochemical
human PLK4 = biological target: T1, human PLK4 (Homo sapiens, UniProt O00444); assay: PLK4 Inhibition Assay (indirect ELISA)
T1 construct: amino terminal GST fusion of residues 1-391 of human PLK4; made in house; host or cells: E. coli
T1 sequence (O00444 1-391): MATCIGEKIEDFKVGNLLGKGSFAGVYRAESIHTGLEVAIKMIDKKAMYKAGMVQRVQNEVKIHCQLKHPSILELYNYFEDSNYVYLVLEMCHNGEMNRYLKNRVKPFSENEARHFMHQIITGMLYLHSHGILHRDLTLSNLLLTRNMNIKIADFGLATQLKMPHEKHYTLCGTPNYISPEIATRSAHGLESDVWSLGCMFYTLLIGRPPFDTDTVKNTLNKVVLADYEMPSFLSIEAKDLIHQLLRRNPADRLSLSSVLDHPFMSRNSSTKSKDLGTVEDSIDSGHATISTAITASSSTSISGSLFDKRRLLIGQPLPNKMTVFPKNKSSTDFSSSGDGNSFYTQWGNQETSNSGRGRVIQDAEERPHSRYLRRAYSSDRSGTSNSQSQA
Procedure, shortened: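 Dephosphorylated (lambda phosphatase) GST-PLK4 activity read by indirect ELISA. Compounds were pre-incubated with enzyme for 15 minutes before ATP was added. IC50 came from a non-linear 4-point logistic fit.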

PLK1 = biological target: T2, PLK1 (Homo sapiens, UniProt P53350); assay: PLK1 Inhibition Assay (Z-Lyte); settings: for inhibition at 10 µM: 10 μM compound, read-out: PLK1 relative inhibition percentage at a dose of 10 μM; for IC50: 25 μM ATP, 8 nM PLK1, read-out: PLK1 IC50 Ranges
T2 construct: purchased Invitrogen PV3501
Procedure: PLK1 inhibition was determined using the Z-Lyte assay kit from Invitrogen (cat #PV3802). […] The % inhibition values were determined according to the manufacturer's directions and IC50 values were obtained using a non-linear 4 point logistic curve fit (XLfit4, IDBS)

PLK2 = biological target: T3, PLK2 (Homo sapiens, UniProt Q9NYY3); assay: PLK2 Inhibition Assay (Z-Lyte); settings: for inhibition at 10 µM: 10 μM compound, read-out: PLK2 relative inhibition percentage at a dose of 10 μM; for IC50: 60 μM ATP, 133 nM PLK2, read-out: PLK2 IC50 Ranges
T3 construct: purchased Invitrogen PV4204
Procedure: (§1) PLK2 inhibition was determined using the Z-Lyte assay kit from Invitrogen (cat #PV3802). The assay was performed using the recommended manufacturer's instructions with 60 μM ATP and 133 nM PLK2 (Invitrogen cat #PV4204). The % inhibition values were determined according to the manufacturer's directions and IC50 values were obtained using a non-linear 4 point logistic curve fit (XLfit4, IDBS)

Aurora A = biological target: T4, Aurora A (Homo sapiens, UniProt O14965); assay: Aurora A Inhibition Assay (Z-Lyte); settings: for IC50: 20 μM ATP, 12 nM Aurora A, read-out: Aurora A IC50 Ranges; for inhibition at 10 µM: 10 μM compound, read-out: Aurora A relative inhibition percentage at a dose of 10 μM
T4 construct: purchased Invitrogen PV3612
T4 sequence (O14965 1-403): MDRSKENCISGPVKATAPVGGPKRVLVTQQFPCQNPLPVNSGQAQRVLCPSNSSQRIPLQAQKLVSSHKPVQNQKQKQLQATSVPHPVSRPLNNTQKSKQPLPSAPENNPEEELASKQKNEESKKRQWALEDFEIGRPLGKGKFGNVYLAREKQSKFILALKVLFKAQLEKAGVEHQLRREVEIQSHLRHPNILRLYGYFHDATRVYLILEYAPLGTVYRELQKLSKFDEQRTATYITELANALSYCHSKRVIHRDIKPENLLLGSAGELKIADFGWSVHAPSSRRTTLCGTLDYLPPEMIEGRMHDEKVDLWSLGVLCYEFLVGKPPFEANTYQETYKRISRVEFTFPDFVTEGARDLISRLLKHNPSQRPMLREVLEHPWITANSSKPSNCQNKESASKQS
Procedure: as §1, with “Aurora A” for “PLK2”, “Invitrogen.” for “Invitrogen (cat #PV3802).”, “20” for “60”, “12” for “133”, “#PV3612).” for “#PV4204).”

Aurora B = biological target: T5, Aurora B (Homo sapiens, UniProt Q96GD4); assay: Aurora B Inhibition Assay (Z-Lyte); settings: for IC50: 128 μM ATP, 28 nM Aurora B, read-out: Aurora B IC50 Ranges; for inhibition at 10 µM: 10 μM compound, read-out: Aurora B relative inhibition percentage at a dose of 10 μM
T5 construct: purchased Invitrogen PV3970
Procedure: as §1, with “Aurora B” for “PLK2”, “Invitrogen.” for “Invitrogen (cat #PV3802).”, “128” for “60”, “28” for “133”, “#PV3970).” for “#PV4204).”

[1] = 15 μM ATP, 4 nM GST-PLK4, read-out: PLK4 IC50 Ranges

T2 sequence (P53350 whole entry): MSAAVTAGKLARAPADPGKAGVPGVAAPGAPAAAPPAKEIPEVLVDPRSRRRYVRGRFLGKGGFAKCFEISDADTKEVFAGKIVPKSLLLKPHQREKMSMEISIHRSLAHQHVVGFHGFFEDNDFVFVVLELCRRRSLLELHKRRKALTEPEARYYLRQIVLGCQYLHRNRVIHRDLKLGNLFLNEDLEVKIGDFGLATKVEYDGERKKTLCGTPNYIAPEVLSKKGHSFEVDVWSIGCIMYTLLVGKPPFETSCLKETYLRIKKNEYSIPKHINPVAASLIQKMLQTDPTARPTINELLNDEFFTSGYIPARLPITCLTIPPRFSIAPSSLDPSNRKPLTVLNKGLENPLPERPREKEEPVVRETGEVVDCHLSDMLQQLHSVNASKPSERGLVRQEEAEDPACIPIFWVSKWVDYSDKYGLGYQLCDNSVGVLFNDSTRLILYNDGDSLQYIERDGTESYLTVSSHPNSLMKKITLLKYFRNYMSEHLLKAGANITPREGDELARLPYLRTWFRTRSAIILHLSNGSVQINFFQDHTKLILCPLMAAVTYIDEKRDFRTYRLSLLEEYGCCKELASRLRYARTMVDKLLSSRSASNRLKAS
T3 sequence (Q9NYY3 whole entry): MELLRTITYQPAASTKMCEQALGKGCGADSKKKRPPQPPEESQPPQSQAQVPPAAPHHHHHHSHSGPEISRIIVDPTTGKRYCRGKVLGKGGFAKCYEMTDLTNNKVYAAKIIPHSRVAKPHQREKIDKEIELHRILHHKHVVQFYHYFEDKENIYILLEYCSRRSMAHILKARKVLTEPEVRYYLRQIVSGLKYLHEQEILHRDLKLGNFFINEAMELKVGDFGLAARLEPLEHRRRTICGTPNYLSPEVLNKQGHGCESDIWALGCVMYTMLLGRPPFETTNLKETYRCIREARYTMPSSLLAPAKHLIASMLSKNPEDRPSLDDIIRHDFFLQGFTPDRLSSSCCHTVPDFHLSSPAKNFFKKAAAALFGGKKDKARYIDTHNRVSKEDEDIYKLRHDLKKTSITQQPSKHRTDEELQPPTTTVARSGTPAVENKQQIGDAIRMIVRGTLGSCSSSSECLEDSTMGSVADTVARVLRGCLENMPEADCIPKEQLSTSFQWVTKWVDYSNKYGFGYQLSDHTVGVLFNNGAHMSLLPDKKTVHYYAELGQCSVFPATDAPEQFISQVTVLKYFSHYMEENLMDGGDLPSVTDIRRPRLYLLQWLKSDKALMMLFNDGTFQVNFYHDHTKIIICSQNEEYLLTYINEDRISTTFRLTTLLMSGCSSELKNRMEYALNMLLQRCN
T5 sequence (Q96GD4 whole entry): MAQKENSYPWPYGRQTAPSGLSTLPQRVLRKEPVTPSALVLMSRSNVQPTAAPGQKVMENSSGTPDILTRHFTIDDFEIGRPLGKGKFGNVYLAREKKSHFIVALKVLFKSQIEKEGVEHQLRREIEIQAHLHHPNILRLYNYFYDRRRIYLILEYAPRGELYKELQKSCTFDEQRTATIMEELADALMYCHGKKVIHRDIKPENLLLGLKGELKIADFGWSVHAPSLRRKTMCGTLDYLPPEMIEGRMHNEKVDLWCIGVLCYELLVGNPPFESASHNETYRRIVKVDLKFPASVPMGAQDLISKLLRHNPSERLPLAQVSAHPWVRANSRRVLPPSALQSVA

SMILES: COc1ccc2c(c1)C(=Cc1ccc3c(/C=C/c4cccnc4)n[nH]c3c1)C(=O)N2 (mixture of isomers) [Example A115, (E and Z)-5-methoxy-3-((3-((E)-2-(pyridin-3-yl)vinyl)-1H-indazol-6-yl)methylene)indolin-2-one]
- IC50 (human PLK4; [1]): < 5 µM
- inhibition at 10 µM (PLK1): < 50%
- inhibition at 10 µM (PLK2): < 50%
- IC50 (Aurora A): < 5 µM
- IC50 (Aurora B): < 5 µM

SMILES: O=C1Nc2ccccc2/C1=C\c1ccc2c(/C=C/c3cccnc3)n[nH]c2c1 [Example A113, (E)-3-((3-((E)-2-(pyridin-3-yl)vinyl)-1H-indazol-6-yl)methylene)-indolin-2-one]
- IC50 (human PLK4; [1]): < 5 µM
- inhibition at 10 µM (PLK1): < 50%
- inhibition at 10 µM (PLK2): < 50%
- IC50 (Aurora A): < 5 µM
- IC50 (Aurora B): < 5 µM

SMILES: COc1ccc2c(c1)/C(=C\c1ccc3c(/C=C/c4cc[n+]([O-])cc4)n[nH]c3c1)C(=O)N2 [Example A117, 4-((E)-2-(6-((E)-(5-methoxy-2-oxoindolin-3-ylidene)methyl)-1H-indazol-3-yl)vinyl)pyridine 1-oxide]
- IC50 (human PLK4): < 5 µM
- inhibition at 10 µM (PLK1): < 50%
- inhibition at 10 µM (PLK2): < 50%
- IC50 (Aurora A): < 5 µM
- IC50 (Aurora B): < 5 µM

SMILES: COc1ccc2c(c1)/C(=C\c1ccc3c(-c4ccc(N5CCOCC5)nc4)n[nH]c3c1)C(=O)N2 [Example A112, (E)-5-methoxy-3-((3-(6-morpholinopyridin-3-yl)-1H-indazol-6-yl)-methylene)indolin-2-one]
- IC50 (human PLK4; [1]): < 5 µM
- inhibition at 10 µM (PLK1): < 50%
- inhibition at 10 µM (PLK2): < 50%
- IC50 (Aurora A): < 5 µM
- IC50 (Aurora B): < 5 µM

SMILES: O=C1Nc2ncccc2/C1=C\c1ccc2cn[nH]c2c1 [Example A67, (E)-3-((1H-indazol-6-yl)methylene)-1H-pyrrolo[2,3-b]pyridin-2(3H)-one]
- IC50 (human PLK4; [1]): < 5 µM
- inhibition at 10 µM (PLK1): > 50%
- inhibition at 10 µM (PLK2): > 50%
- inhibition at 10 µM (Aurora A): > 50%
- inhibition at 10 µM (Aurora B): > 50%

SMILES: O=C1Nc2ccccc2C1=Cc1ccc2c(/C=C/c3cnccn3)n[nH]c2c1 (mixture of isomers) [Example A104, (E and Z)-3-((3-((E)-2-(pyrazin-2-yl)vinyl)-1H-indazol-6-yl)methylene)-indolin-2-one]
- IC50 (human PLK4; [1]): < 5 µM
- inhibition at 10 µM (PLK1): < 50%
- inhibition at 10 µM (PLK2): < 50%
- IC50 (Aurora A): < 5 µM
- IC50 (Aurora B): < 5 µM

SMILES: COC(=O)/C=C/c1n[nH]c2cc(/C=C3/C(=O)Nc4ccccc43)ccc12 [Example A61, (E)-methyl 3-(6-((E)-(2-oxoindolin-3-ylidene)methyl)-1H-indazol-3-yl)acrylate]
- IC50 (human PLK4; [1]): < 5 µM
- inhibition at 10 µM (PLK1): < 50%
- inhibition at 10 µM (PLK2): < 50%
- IC50 (Aurora A): < 5 µM
- IC50 (Aurora B): < 5 µM

SMILES: O=C1Nc2ccc(Br)cc2/C1=C\c1ccc2c(/C=C/c3ccncc3)n[nH]c2c1 [Example A62, (E)-5-bromo-3-((3-((E)-2-(pyridin-4-yl)vinyl)-1H-indazol-6-yl)-methylene)indolin-2-one]
- IC50 (human PLK4; [1]): < 5 µM
- inhibition at 10 µM (PLK1): < 50%
- inhibition at 10 µM (PLK2): < 50%
- IC50 (Aurora A): < 5 µM
- IC50 (Aurora B): < 5 µM

SMILES: O=C1Nc2ccc(F)cc2/C1=C\c1ccc2cn[nH]c2c1 [Example A16, (E)-3-((1H-indazol-6-yl)methylene)-5-fluoroindolin-2-one]
- IC50 (human PLK4; [1]): < 5 µM
- IC50 (PLK1): 5 to 50 µM
- IC50 (PLK2): < 5 µM
- IC50 (Aurora A): < 5 µM
- IC50 (Aurora B): < 5 µM

SMILES: COc1ccc2c(c1)C(=Cc1ccc3c(/C=C/c4ccccn4)n[nH]c3c1)C(=O)N2 (mixture of isomers) [Example A87, (E and Z)-5-methoxy-3-((3-((E)-2-(pyridin-2-yl)vinyl)-1H-indazol-6-yl)methylene)indolin-2-one]
- IC50 (human PLK4; [1]): < 5 µM
- inhibition at 10 µM (PLK1): < 50%
- inhibition at 10 µM (PLK2): < 50%
- inhibition at 10 µM (Aurora A): > 50%
- IC50 (Aurora B): < 5 µM

SMILES: CC(C)(C)OC(=O)Nc1ccc2c(c1)NC(=O)/C2=C/c1ccc2cn[nH]c2c1 [Example A37, (E)-tert-butyl 3-((1H-indazol-6-yl)methylene)-2-oxoindolin-6-ylcarbamate]
- IC50 (human PLK4; [1]): 5 to 50 µM
- IC50 (PLK1): > 50 µM
- IC50 (PLK2): > 50 µM
- inhibition at 10 µM (Aurora A): < 50%
- IC50 (Aurora B): < 5 µM

SMILES: O=C1Nc2ccccc2C1=Cc1ccc2c(-c3cccnc3)n[nH]c2c1 (mixture of isomers) [Example A93, (E and Z)-3-((3-(pyridin-3-yl)-1H-indazol-6-yl)methylene)indolin-2-one]
- IC50 (human PLK4; [1]): < 5 µM
- inhibition at 10 µM (PLK1): < 50%
- inhibition at 10 µM (PLK2): < 50%
- IC50 (Aurora A): < 5 µM
- IC50 (Aurora B): < 5 µM

SMILES: CCOC(=O)/C=C/c1n[nH]c2cc(C=C3C(=O)Nc4ncccc43)ccc12 (mixture of isomers) [Example A110, (E and Z)-ethyl 3-(6-((E)-(2-oxo-1H-pyrrolo[2,3-b]pyridin-3(2H-ylidene)methyl)-1H-indazol-3-yl)acrylate]
- IC50 (human PLK4; [1]): < 5 µM
- inhibition at 10 µM (PLK1): < 50%
- inhibition at 10 µM (PLK2): < 50%
- IC50 (Aurora A): < 5 µM
- IC50 (Aurora B): < 5 µM

SMILES: O=C1Nc2c(F)cccc2/C1=C\c1ccc2cn[nH]c2c1 [Example A42, (E)-3-((1H-indazol-6-yl)methylene)-7-fluoroindolin-2-one]
- IC50 (human PLK4; [1]): < 5 µM
- IC50 (PLK1): > 50 µM
- inhibition at 10 µM (PLK2): > 50%
- IC50 (Aurora A): < 5 µM
- IC50 (Aurora B): < 5 µM

SMILES: O=C1Nc2ccc(C(=O)Nc3ccccc3)cc2/C1=C\c1ccc2cn[nH]c2c1 [Example A11, (E)-3-((1H-indazol-6-yl)methylene)-2-oxo-N-phenylindoline-5-carboxamide]
- IC50 (human PLK4; [1]): < 5 µM
- IC50 (PLK1): > 50 µM
- inhibition at 10 µM (PLK2): < 50%
- inhibition at 10 µM (Aurora A): > 50%
- inhibition at 10 µM (Aurora B): > 50%

SMILES: CC(=O)Nc1ccc2c(c1)/C(=C\c1ccc3cn[nH]c3c1)C(=O)N2 [Example A22, (E)-N-(3-((1H-indazol-6-yl)methylene)-2-oxoindolin-5-yl)acetamide]
- IC50 (human PLK4; [1]): < 5 µM
- IC50 (PLK1): 5 to 50 µM
- inhibition at 10 µM (PLK2): > 50%
- inhibition at 10 µM (Aurora A): > 50%
- IC50 (Aurora B): 5 to 50 µM

SMILES: COc1ccc2c(c1)/C(=C\c1ccc3c(/C=C/c4ccncc4Cl)n[nH]c3c1)C(=O)N2 [Example A119, (E)-3-((3-((E)-2-(3-chloropyridin-4-yl)vinyl)-1H-indazol-6-yl)methyl-ene)-5-methoxyindolin-2-one]
- IC50 (human PLK4; [1]): < 5 µM
- inhibition at 10 µM (PLK1): < 50%
- inhibition at 10 µM (PLK2): < 50%
- IC50 (Aurora A): < 5 µM
- IC50 (Aurora B): < 5 µM

SMILES: O=C1Nc2ccccc2C1=Cc1ccc2c(-c3ccc[nH]3)n[nH]c2c1 (mixture of isomers) [Example A89, (E and Z)-3-((3-(1H-pyrrol-2-yl)-1H-indazol-6-yl)methylene)indolin-2-one]
- IC50 (human PLK4; [1]): < 5 µM
- inhibition at 10 µM (PLK1): < 50%
- inhibition at 10 µM (PLK2): < 50%
- IC50 (Aurora A): < 5 µM
- IC50 (Aurora B): < 5 µM

SMILES: O=C1Nc2ncc(Br)cc2C1=Cc1ccc2cn[nH]c2c1 (racemic) [Example A69, (E and Z)-3-((1H-indazol-6-yl)methylene)-5-bromo-1H-pyrrolo[2,3-b]pyridin-2(3H)-one]
- IC50 (human PLK4; [1]): < 5 µM
- inhibition at 10 µM (PLK1): > 50%
- inhibition at 10 µM (PLK2): > 50%
- inhibition at 10 µM (Aurora A): > 50%
- inhibition at 10 µM (Aurora B): > 50%
